The values that follow come from publication PMC12058896, “Potent antimicrobial activity of hydrogel loaded with the antimicrobial peptide, D-Bac8c^2,5 Leu, against monospecies and polymicrobial biofilms of Staphylococcus aureus and Pseudomonas aeruginosa” (Frontiers in Microbiology, 2025).

The test system of one test is BH48. In words: microbe, parasite or virus in culture. Format: cell-based, Staphylococcus aureus. The note with it: 18 h. As to the method:
(§1) Strains used in the study were isolates of methicillin-resistant Staphylococcus aureus (MRSA); USA300 LAC, BH1CC ([O’Neill et al., 2007]), methicillin-sensitive S. aureus (MSSA); SH1000 ([Horsburgh et al., 2002]) and BH48 ([O’Neill et al., 2007]); and Pseudomonas aeruginosa PAO1 (ATCC […]). Clinical isolates were obtained from a previous collection of isolates of infected wounds. Bacteria were grown aerobically at 37°C with shaking at 200 rpm in Brain Heart Infusion (BHI, Oxoid, Ireland). Selective media, Mannitol Salt Agar (SLS, Ireland) and MacConkey agar (SLS, Ireland), for re-isolation of bacterial strains from mixed species biofilms were used. Bolton Broth (Fannin, Ireland) supplemented with 50% bovine heparin plasma (TebuBio, UK), and 5% laked horse blood (Sigma-Aldrich, Ireland) was used to mimic in vivo conditions for static antibiofilm testing. For dynamic biofilm growth Simulated Wound Fluid (SWF) prepared as described previously with slight modification, 3% v/v fetal bovine serum in maximum recovery diluent (Merck, Ireland) was used ([Barbour et al., 2016]).
(§2) Minimum inhibitory concentration (MIC) was determined aerobically using the broth microdilution assay as recommended by the Clinical and Laboratory Standards Institute (CLSI) ([CLSI, 2018]). Briefly, 2-fold serial dilutions of the antimicrobial peptides of interest and conventional antibiotics were prepared in Mueller-Hinton broth (MHB) (Merck, Ireland) in a 96-well round bottom polypropylene plate (ThermoFisher, Ireland). Diluted bacterial suspensions in sterile PBS (Sigma, Ireland) were added to each well resulting in a final cell density of approximately 10^5 colony forming units (CFU)/mL. Microplates were incubated statically for 18 h at 37°C. In each assay, inoculated medium without antimicrobials and uninoculated medium served as growth and sterility controls, respectively. Conventional antibiotics, gentamicin (Merck, Ireland) and mupirocin (SLS, UK), were tested as comparator antimicrobials. The MIC value was defined as the lowest antimicrobial concentration showing no visible growth relative to positive (no antimicrobial agent) and negative controls (BHI alone). Experiments were conducted in triplicate, and independent replicates were performed three times to yield n = 3.

The test system of another test is SH1000. In words: microbe, parasite or virus in culture. The test is classed as cell-based, Staphylococcus aureus. As to the method: as §1, §2
In the next test the test system is USA300. In words: microbe, parasite or virus in culture. Format: cell-based, Staphylococcus aureus. As to the method: as §1, §2
For the next test, the system named is BH1CC. In words: microbe, parasite or virus in culture. As to conditions: 18 h. Format: cell-based, Staphylococcus aureus. The procedure:
as §1, §2

A further test has as its system PAO1. In words: microbe, parasite or virus in culture. The test is classed as cell-based, Pseudomonas aeruginosa. As to the method: as §1, §2
The next test has as its system HUVEC. In words: MTT cell viability. Format: cell-based, human. As to conditions: 24 h, 37°C, 5% CO2, ethanol control.
In another test the test system is THP-1. Format: cell-based, human. The note with it: THP-1; 24 h, 37°C, 5% CO2; ethanol control. As to the method:
Sigma-Aldrich, Ireland). […] At 90% confluence, cells were centrifuged and diluted to a 1:5 ratio with complete RPMI. THP-1 cells were seeded in a 96 well plate at a density of 1 × 10^5 cells/mL with increasing concentrations of D-Bac8c^2,5 Leu. Cells were incubated for 24 h at 37°C with 5% CO2, 95% humidity. […] The absorbance was measured at 595 nm in a microplate spectrophotometer. Cell viability was calculated as a percentage of a control treated with PBS. Two technical replicates were performed each day on three independent days.

The test system of another test is HaCaT. In words: MTT cell viability. Format: cell-based, human. The note with it: 24 h, 37°C, 5% CO2, ethanol control.
Another test concerns S. aureus strains. The test is classed as cell-based, Staphylococcus aureus. As to conditions: 2 MRSA and 2 MSSA strains, summed up in text. The procedure:
as §1
Minimum inhibitory concentration (MIC) was determined aerobically using the broth microdilution assay as recommended by the Clinical and Laboratory Standards Institute (CLSI) ([CLSI, 2018]). […]

The mark [1] stands for this setting: Staphylococcus aureus, BH48 (MSSA), MHB, about 10^5 CFU/mL, 37°C, n = 3, read-out: MIC.
The mark [2] stands for this setting: Staphylococcus aureus, SH1000 (MSSA), MHB, about 10^5 CFU/mL, 18 h, 37°C, n = 3, read-out: MIC.
[3] abbreviates: Staphylococcus aureus, USA300 (MRSA), MHB, about 10^5 CFU/mL, 18 h, 37°C, n = 3, read-out: MIC.
Where [4] appears, read: Staphylococcus aureus, BH1CC (MRSA), MHB, about 10^5 CFU/mL, 37°C, n = 3, read-out: MIC.
[5] abbreviates: Pseudomonas aeruginosa, PAO1, MHB, about 10^5 CFU/mL, 18 h, 37°C, n = 3, read-out: MIC.
[6] abbreviates: BH48 (MSSA), MHB, about 10^5 CFU/mL, 37°C, n = 3.
Where [7] appears, read: SH1000 (MSSA), MHB, about 10^5 CFU/mL, 18 h, 37°C, n = 3.
[8] abbreviates: USA300 (MRSA), MHB, about 10^5 CFU/mL, 18 h, 37°C, n = 3.
Setting [9] is: BH1CC (MRSA), MHB, about 10^5 CFU/mL, 37°C, n = 3.
[10] abbreviates: PAO1, MHB, about 10^5 CFU/mL, 18 h, 37°C, n = 3.

In brackets after ≈: the same amount, converted by molar mass. Read-outs that look alike come from different tables or passages of the source. Residues, ends and D or L forms follow the SMILES beside them.

`CC[C@H](C)[C@H](NC(=O)[C@H](CCCNC(=N)N)NC(=O)[C@H](Cc1ccccc1)NC(=O)[C@H](CCCNC(=N)N)NC(=O)[C@@H](N)CCCCN)C(=O)N[C@@H](CCCNC(=N)N)C(=O)N[C@H](C(=O)N[C@@H](CCCNC(=N)N)C(=O)N[C@H](C(N)=O)C(C)C)C(C)C` [1,037] (H-KRFRIRVRV-NH2): the MIC against BH48 is 128 µg/mL (≈ 104 µM); with SH1000 (SH1000, 18 h) it was 128 µg/mL (≈ 104 µM); against USA300 (USA300, 18 h) it was 128 µg/mL (≈ 104 µM); against BH1CC, 128 µg/mL (≈ 104 µM); in the test on PAO1 (PAO1, 18 h), 64 µg/mL (≈ 52.1 µM).
Consider `CC(C)[C@H](NC(=O)[C@H](CCCCN)NC(=O)[C@H](CCCCN)NC(=O)[C@@H]1CCCN1C(=O)[C@H](CCCCN)NC(=O)[C@@H](NC(=O)[C@@H]1CCCN1C(=O)[C@H](CCCCN)NC(=O)[C@@H](NC(=O)[C@H](CCCCN)NC(=O)[C@H](CCCCN)NC(=O)[C@H](CO)NC(=O)[C@@H]1CCCN1)[C@@H](C)O)C(C)C)C(=O)N[C@@H](C)C(N)=O` [DRGN-1] (H-PSKKTKPVKPKKVA-NH2), for which the MIC is over 400 µg/mL against BH48; over 400 µg/mL in the test with SH1000 (SH1000, 18 h); over 400 µg/mL in the test on USA300 (USA300, 18 h); over 400 µg/mL in the test with BH1CC; over 400 µg/mL in the test with PAO1 (PAO1, 18 h).
For the compound `CCO` [Ethanol, reference compound], the “IC50 (50% cell viability), MTT” value came to 0.4% in the test with HUVEC, 1% in the test on THP-1 and 1.2% in the test on HaCaT.
Turning to `CC(=O)O[C@H]1C[C@@]2(C)[C@@H](C[C@@H](O)[C@H]3[C@@]4(C)CC[C@@H](O)[C@@H](C)[C@@H]4CC[C@@]32C)/C1=C(\CCC=C(C)C)C(=O)O` [Fusidic acid], the MIC was 4 µg/mL (≈ 7.74 µM) with BH48 (setting [1]); 0.06 µg/mL (≈ 0.116 µM) with SH1000 (setting [2]); 0.03 µg/mL (≈ 0.0581 µM) in the test on USA300 (setting [3]); 2 µg/mL (≈ 3.87 µM) in the test on BH1CC (setting [4]); over 512 µg/mL with PAO1 (setting [5]).
Take `CNC(C)C1CCC(N)C(OC2C(N)CC(N)C(OC3OCC(C)(O)C(NC)C3O)C2O)O1` (stereo not drawn) [Gentamicin, gentamicin]: the MIC stood at 0.25 µg/mL (≈ 0.523 µM) in the test on BH48 (setting [1]); 0.25 µg/mL (≈ 0.523 µM) in the test on SH1000 (setting [2]); 0.5 µg/mL (≈ 1.05 µM) with USA300 (setting [3]); 32 µg/mL (≈ 67 µM) with BH1CC (setting [4]); 1 µg/mL (≈ 2.09 µM) with PAO1 (setting [5]).
As to `CC[C@H](C)[C@H](NC(=O)[C@H](CCCNC(=N)N)NC(=O)[C@@H](NC(=O)[C@H](C)NC(=O)[C@@H](NC(=O)[C@@H](NC(=O)[C@H](CC(C)C)NC(=O)[C@H](CCCNC(=N)N)NC(=O)[C@@H](N)C(C)C)[C@@H](C)CC)C(C)C)C(C)C)C(=O)N[C@@H](Cc1c[nH]c2ccccc12)C(=O)N[C@@H](CCCNC(=N)N)C(=O)N[C@@H](CCCNC(=N)N)C(N)=O` [IDR-1018] (H-VRLIVAVRIWRR-NH2), the MIC was 128 µg/mL (≈ 83.3 µM) in the test on BH48 (setting [6]); 64 µg/mL (≈ 41.7 µM) in the test on SH1000 (setting [7]); 64 µg/mL (≈ 41.7 µM) in the test with USA300 (setting [8]); 128 µg/mL (≈ 83.3 µM) against BH1CC (setting [9]); 64 µg/mL (≈ 41.7 µM) in the test with PAO1 (setting [10]).
`C/C(=C\C(=O)OCCCCCCCCC(=O)O)C[C@@H]1OC[C@H](C[C@@H]2O[C@H]2[C@@H](C)[C@H](C)O)[C@@H](O)[C@H]1O` [Mupirocin, mupirocin]: the MIC was 0.03 µg/mL (≈ 0.0599 µM) in the test on BH48 (setting [1]); 0.03 µg/mL (≈ 0.0599 µM) with SH1000 (setting [2]); 0.06 µg/mL (≈ 0.12 µM) with USA300 (setting [3]); 2 µg/mL (≈ 3.99 µM) with BH1CC (setting [4]); over 2050 µg/mL in the test on PAO1 (setting [5]).
Regarding `CC[C@H](C)[C@H](NC(=O)CNC(=O)[C@H](CCCCN)NC(=O)[C@H](Cc1ccc(O)cc1)NC(=O)[C@H](CS)NC(=O)[C@@H](NC(=O)[C@H](CCCCN)NC(=O)[C@H](Cc1c[nH]c2ccccc12)NC(=O)[C@H](CS)NC(=O)[C@H](Cc1ccccc1)NC(=O)[C@@H](N)CCCNC(=N)N)C(C)C)C(=O)N[C@@H](CS)C(=O)N[C@@H](Cc1ccccc1)C(=O)N[C@@H](CCCCN)C(=O)N[C@@H](CCCCN)C(=O)N[C@@H](CS)C(=O)N[C@@H](CCCCN)C(N)=O` [RP557] (H-RFCWKVCYKGICFKKCK-NH2; N-terminus assumed), the MIC in the test on BH48 (setting [6]) was determined as 16 µg/mL (≈ 7.48 µM); with SH1000 (setting [7]), 16 µg/mL (≈ 7.48 µM); against USA300 (setting [8]), 16 µg/mL (≈ 7.48 µM); in the test with BH1CC (setting [9]) it was 16 µg/mL (≈ 7.48 µM); against PAO1 (setting [10]), 8 µg/mL (≈ 3.74 µM). For the same compound, in the test on S. aureus strains, the “MIC against S. aureus strains” value is 16 µg/mL (≈ 7.48 µM).
